pIC50: −log10 of the molar value.
Assays:
S100A4 = molecular target: T1, S100A4 (Homo sapiens, UniProt P26447); experiment: SPR direct binding to amine-coupled S100A4; SPR inhibition of S100A4 binding to immobilized RAGE (IC50 […], Figure 5C)
T1 construct: human S100A4 (R&D Systems)

S100A9 = molecular target: T2, S100A9 (Homo sapiens, UniProt P06702); experiment: SPR direct binding to amine-coupled S100A9; SPR inhibition of S100A9 binding to immobilized RAGE (IC50 […]) and TLR4 ([…])
T2 construct: recombinant human S100A9 (produced in E. coli)
T2 sequence (P06702 1-114): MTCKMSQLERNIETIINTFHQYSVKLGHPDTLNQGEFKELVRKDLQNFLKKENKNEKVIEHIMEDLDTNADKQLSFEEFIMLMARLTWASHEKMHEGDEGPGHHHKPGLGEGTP

T1 sequence (P26447 2-101): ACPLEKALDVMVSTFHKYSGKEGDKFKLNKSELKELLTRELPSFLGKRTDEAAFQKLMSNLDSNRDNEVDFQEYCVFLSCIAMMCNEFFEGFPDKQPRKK

How did the pIC50 (S100A4) turn out when O=C(Nc1cc(Cl)cc(Cl)c1O)c1c(O)c(Cl)cc(Cl)c1Cl [OX, Oxyclozanide] was run?
Its pIC50 is 4.28.

What about the pIC50 (S100A9) of the same molecule?
Its pIC50 is roughly 5.89.
